From ChEMBL document CHEMBL3826909, “Quinoxaline-based inhibitors of Ebola and Marburg VP40 egress” (Bioorg Med Chem Lett, 2016)
Calls of active or inactive are those of the source. The rule behind the calls is not given here.

How the values were obtained:
[1] = target: T1, Matrix protein VP40 (Lake Victoria marburgvirus (strain Ravn-87) (MARV) (Marburg virus (strainKenya/Ravn/1987))) (UniProt Q1PDC8); experiment: Inhibition of Marburg virus VP40 PPxY L-domain motif expressed in HEK293T cells assessed as reduction in VLP budding at 0.1 uM relative to control; type: cell-based; conditions: HEK-293T
T1 sequence (whole entry): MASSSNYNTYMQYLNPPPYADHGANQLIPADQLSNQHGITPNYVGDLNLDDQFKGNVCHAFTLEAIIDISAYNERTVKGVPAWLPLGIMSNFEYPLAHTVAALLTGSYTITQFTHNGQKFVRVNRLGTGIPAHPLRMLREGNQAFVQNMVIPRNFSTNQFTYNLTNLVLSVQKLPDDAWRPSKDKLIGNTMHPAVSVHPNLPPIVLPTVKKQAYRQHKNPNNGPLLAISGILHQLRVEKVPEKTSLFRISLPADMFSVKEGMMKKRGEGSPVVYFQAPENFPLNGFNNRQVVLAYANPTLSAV

[2] = Effect on cellular protein levels in human HEK293T cells infected with recombinant Vesicular stomatitis virus-M40 expressing Ebola virus VP40 PPxY L-domain motif at 30 to 100 nM after 8 hrs by Western blot analysis relative to control; type: ADME, cell-based; conditions: hek-293t, 0.1 µM
[3] = test system: Vesicular stomatitis virus; experiment: Effect on viral protein levels in recombinant Vesicular stomatitis virus-M40 expressing Ebola virus VP40 PPxY L-domain motif infected in HEK293T cells at 30 to 100 nM after 8 hrs by Western blot analysis relative to control; type: ADME, organism-based; conditions: hek-293t, 0.1 µM
[4] = Cytotoxicity against human HEK293T cells assessed as cell viability at 0.01 uM after 24 hrs by MTT assay relative to control; type: cell-based, HEK-293T; conditions: read-out: Activity
Cytochrome P450 3A4 = Cytochrome P450 3A4 (Homo sapiens, UniProt P08684); experiment: Inhibition of CYP3A4 (unknown origin) using midazolam as substrate; type: ADME
Liver microsome [5] = experiment: Intrinsic clearance in human liver microsomes assessed per mg of protein; type: ADME
[6] = target: T1, Matrix protein VP40 (Lake Victoria marburgvirus (strain Ravn-87) (MARV) (Marburg virus (strainKenya/Ravn/1987))); experiment: Inhibition of Marburg virus VP40 PPxY L-domain motif expressed in HEK293T cells assessed as reduction in VLP budding at 100 nM after 24 hrs by Western blot analysis; type: cell-based; conditions: HEK-293T
[7] = Cytotoxicity against human HEK293T cells assessed as cell viability at 1 uM after 24 hrs by MTT assay relative to control; type: cell-based, HEK-293T; conditions: read-out: Activity
[8] = target: T1, Matrix protein VP40 (Lake Victoria marburgvirus (strain Ravn-87) (MARV) (Marburg virus (strainKenya/Ravn/1987))); experiment: Inhibition of Marburg virus VP40 PPxY L-domain motif expressed in HEK293T cells assessed as reduction in VLP budding at 0.03 uM relative to control; type: cell-based; conditions: HEK-293T
[9] = Cytotoxicity against African green monkey Vero E6 cells assessed as cell viability at 0.01 uM after 24 hrs by MTT assay relative to control; type: cell-based; conditions: chlorocebus sabaeus, read-out: Activity
[10] = Cytotoxicity against African green monkey Vero E6 cells assessed as cell viability at 1 uM after 24 hrs by MTT assay relative to control; type: cell-based; conditions: chlorocebus sabaeus, read-out: Activity
[11] = Cytotoxicity against human HEK293T cells assessed as cell viability at 0.1 uM after 24 hrs by MTT assay relative to control; type: cell-based, HEK-293T; conditions: read-out: Activity
[12] = Cytotoxicity against African green monkey Vero E6 cells assessed as cell viability at 0.1 uM after 24 hrs by MTT assay relative to control; type: cell-based; conditions: chlorocebus sabaeus, read-out: Activity
[13] = Cytotoxicity against African green monkey Vero E6 cells assessed as cell viability at 10 uM after 24 hrs by MTT assay relative to control; type: cell-based; conditions: chlorocebus sabaeus, read-out: Activity
HEK-293T [14] = experiment: Inhibition of Ebola virus VP40 PPxY L-domain motif expressed in HEK293T cells assessed as reduction in VLP budding at 100 nM after 24 hrs by Western blot analysis relative to control; type: cell-based; conditions: Ebolavirus
[15] = target: T1, Matrix protein VP40 (Lake Victoria marburgvirus (strain Ravn-87) (MARV) (Marburg virus (strainKenya/Ravn/1987))); experiment: Inhibition of Marburg virus VP40 PPxY L-domain motif-Nedd4 interaction in HEK293T cells coexpressing NYFP-Nedd4 and CYFP-mVP40 at 0.1 uM by inverted confocal microscopy based bimolecular complementation assay; type: cell-based; conditions: HEK-293T
HEK-293T [16] = experiment: Inhibition of Ebola virus VP40 PPxY L-domain motif expressed in HEK293T cells assessed as reduction in VLP budding at 30 nM after 24 hrs by Western blot analysis relative to control; type: cell-based; conditions: Ebolavirus
[17] = Half life in mouse liver microsomes; type: ADME
Liver microsome [18] = experiment: Half life in human liver microsomes; type: ADME
[19] = Cytotoxicity against human HEK293T cells assessed as cell viability at 10 uM after 24 hrs by MTT assay relative to control; type: cell-based, HEK-293T; conditions: read-out: Activity
[20] = target: T1, Matrix protein VP40 (Lake Victoria marburgvirus (strain Ravn-87) (MARV) (Marburg virus (strainKenya/Ravn/1987))); experiment: Inhibition of Marburg virus VP40 PPxY L-domain motif expressed in HEK293T cells assessed as reduction in VLP budding at 30 nM after 24 hrs by Western blot analysis relative to control; type: cell-based; conditions: HEK-293T
[21] = Intrinsic clearance in mouse liver microsomes assessed per mg of protein; type: ADME
[22] = target: T1, Matrix protein VP40 (Lake Victoria marburgvirus (strain Ravn-87) (MARV) (Marburg virus (strainKenya/Ravn/1987))); experiment: Inhibition of Marburg virus VP40 PPxY L-domain motif expressed in HEK293T cells assessed as reduction in VLP budding at 0.3 uM relative to control; type: cell-based; conditions: HEK-293T
[23] = target: T1, Matrix protein VP40 (Lake Victoria marburgvirus (strain Ravn-87) (MARV) (Marburg virus (strainKenya/Ravn/1987))); experiment: Inhibition of Marburg virus VP40 PPxY L-domain motif expressed in HEK293T cells assessed as reduction in VLP budding at 1 uM relative to control; type: cell-based; conditions: HEK-293T

Chain of Cytochrome P450 3A4 (P08684 whole entry): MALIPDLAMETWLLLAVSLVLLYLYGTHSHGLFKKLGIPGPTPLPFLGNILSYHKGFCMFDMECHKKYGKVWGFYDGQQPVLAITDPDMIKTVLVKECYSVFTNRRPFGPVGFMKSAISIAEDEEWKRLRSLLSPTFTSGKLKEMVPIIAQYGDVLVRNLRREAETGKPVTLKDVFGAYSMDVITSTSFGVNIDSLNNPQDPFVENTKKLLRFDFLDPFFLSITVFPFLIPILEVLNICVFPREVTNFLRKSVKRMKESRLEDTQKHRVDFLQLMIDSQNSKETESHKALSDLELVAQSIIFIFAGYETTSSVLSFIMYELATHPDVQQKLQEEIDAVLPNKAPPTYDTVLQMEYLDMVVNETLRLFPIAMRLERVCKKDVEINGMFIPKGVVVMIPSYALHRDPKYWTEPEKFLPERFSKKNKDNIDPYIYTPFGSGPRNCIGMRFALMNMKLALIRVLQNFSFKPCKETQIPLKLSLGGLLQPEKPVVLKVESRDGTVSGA

Row | Structure (SMILES) | inhibition [1] [%] | viability at 24 h, 0.01 µM [4] [%] | IC50 (Cytochrome P450 3A4) [µM] | Intrinsic clearance (Liver microsome [5]) [mL/min] | inhibition [6] | viability at 24 h, 1 µM [7] [%] | inhibition [8] [%] | viability at 24 h, 0.01 µM [9] [%] | viability at 24 h, 1 µM [10] [%] | viability at 24 h, 0.1 µM [11] [%] | viability at 24 h, 0.1 µM [12] [%] | viability at 24 h, 10 µM [13] [%] | t1/2 [17] [min] | t1/2 (Liver microsome [18]) [min] | viability at 24 h, 10 µM [19] [%] | also measured
1 | Cc1nc2ccccc2nc1SCC(=O)NC(=O)Nc1ccccc1Cl | 99 | 96.9 | > 33 | 0.72 | Active | 63.9 | 93 | 101 | 79.1 | 69.3 | 101 | 80.9 | 2 | 76.1 | 65.4 | Activity [2]: Non-toxic; Activity [3]: Non-toxic; inhibition (HEK-293T [14]): Active; inhibition [15]: Active; inhibition (HEK-293T [16]): Active; inhibition [20]: Active
2 | Cc1ccc(NC(=O)NC(=O)CSc2nc3ccccc3nc2C)cc1 | 100 | 98.3 | > 33 | 0.95 | > 90% | 61.8 | 93 | 98.4 | 78.5 | 81.9 | 93.9 | 69.8 | < 1.4 | 57.7 | 52.8 | CLH [21]: > 50 mL/min; inhibition [22]: 100%; inhibition [23]: 100%; fold change (FC) [20]: 15
